{"source": "patent US20120316161A1", "about": "“NOVEL ANTIVIRAL COMPOUNDS” (KATHOLIEKE UNIVERSITEIT LEUVEN, priority 2009, published 2012)", "key": {"[1]": {"biological_target": "T1, LEDGF-integrase interaction (His6-tagged HIV-1 integrase, flag-LEDGF/p75) (Human immunodeficiency virus type 1 group M subtype B, UniProt P04585)", "T1 construct": "His6-tagged HIV-1 integrase; made in house", "assay": "AlphaScreen assay of LEDGF-integrase interaction inhibition", "format": "binding", "conditions": "compound at 100 μM", "procedure": "The AlphaScreen assay was performed according to the manufacturer's protocol (Perkin Elmer, Benelux). Reactions were performed in 25 μl final volume in 384-well Optiwell™ microtiter plates (Perkin Elmer). The reaction buffer contained 25 mM Tris-HCl (pH 7.4), 150 mM NaCl, 1 mM MgCl2, 0.01% (v/v) Tween-20 and 0.1% (w/v) bovine serum albumin. His6-tagged integrase (300 nM final concentration) was incubated with the compounds for 30 min at 4° C. The compounds were added at varying concentrations spanning a wide range from 0.1 up to 100 μM. Afterwards 100 nM flag-LEDGF/p75 was added and incubation was prolonged for an additional hour at 4° C. Subsequently 5 μl of Ni-chelate—coated acceptor beads and 5 μl anti-flag donor beads were added to a final concentration of 20 μg/ml of both beads. Proteins and beads were incubated for 1 h at 30° C. in order to allow association to occur. Exposure of the reaction to direct light was omitted as much as possible and the emission of light from the acceptor beads was measured in the EnVision plate reader (Perkin Elmer, Benelux) and analyzed using the EnVision manager software. IN/DNA binding was analyzed in a similar setting using His6-tagged integrase (1 μM final concentration) and an oligodeoxynucleotide mimicking the IN ELISA oligonucleotide substrate (30 nM final concentration). Counterscreens with JPO2 or PogZ, respectively, were essentially performed as described previously. Expression and purification of recombinant proteins: His6-tagged HIV-1 integrase, 3xflag-tagged LEDGF/p75, MBP-JPO2 and MBP-PogZ were purified for AlphaScreen applications as described previously."}, "MT-4 cells": {"tested_on": "MT-4 cells", "assay": "Cytotoxicity in mock-infected MT-4 cells (MTT)", "format": "cell-based", "procedure": "(§1) A rapid and automated assay procedure was used for the in vitro evaluation of anti-HIV agents. An HTLV-1 transformed T4-cell line MT-4, which was previously shown to be highly susceptible to and permissive for HIV infection, served as the target cell line. Inhibition of the HIV-induced cytopathogenic effect was used as the end point. The viability of both HIV-and mock-infected cells was assessed spectrophotometrically via in situ reduction of 3-(4,5-dimethylthiazol-2-yl)-2,5-diphenyltetrazolium bromide (MTT). […] The percent protection achieved by the compound in HIV-infected cells was calculated by the following formula: […]\n(§2) whereby (ODT)HIV is the optical density measured with a given concentration of the test compound in HIV-infected cells; (ODC)HIV is the optical density measured for the control untreated HIV-infected cells; (ODC)MOCK is the optical density measured for the control untreated mock-infected cells; all optical density values were determined at 540 nm. […] The ratio of CC50 to EC50 was defined as the selectivity index (SI)."}, "HIV": {"tested_on": "HIV", "assay": "microbe, parasite or virus in culture", "format": "cell-based", "procedure": "A rapid and automated assay procedure was used for the in vitro evaluation of anti-HIV agents. An HTLV-1 transformed T4-cell line MT-4, which was previously shown to be highly susceptible to and permissive for HIV infection, served as the target cell line. Inhibition of the HIV-induced cytopathogenic effect was used as the end point. The viability of both HIV-and mock-infected cells was assessed spectrophotometrically via in situ reduction of 3-(4,5-dimethylthiazol-2-yl)-2,5-diphenyltetrazolium bromide (MTT). The 50% cytotoxic concentration (CC50 in μg/ml) was defined as the concentration of compound that reduced the absorbance of the mock-infected control sample by 50%. The percent protection achieved by the compound in HIV-infected cells was calculated by the following formula: […]\nwhereby (ODT)HIV is the optical density measured with a given concentration of the test compound in HIV-infected cells; (ODC)HIV is the optical density measured for the control untreated HIV-infected cells; (ODC)MOCK is the optical density measured for the control untreated mock-infected cells; all optical density values were determined at 540 nm. The dose achieving 50% protection according to the above formula was defined as the 50% inhibitory concentration (EC50 in μg/ml or μM). The ratio of CC50 to EC50 was defined as the selectivity index (SI). […] Examples of inhibition of cell proliferation by particular compounds of the invention can be found by looking at the respective CC50 values in the MT-4 cell line. Cells: MT-4 cells (Miyoshi et al., 1982) were grown and maintained in RPMI 1640medium supplemented with 10% heat-inactivated fetal calf serum, 2 mM 1-glutamine, 0.1% sodium bicarbonate, and 20æg of gentamicin per ml.\nViruses: The HIV-1 (NL4.3) strain (Adachi et al., 1986) is a molecular clone obtained from the National Institutes of Health (Bethesda, Md.). The HIV-2 (ROD) (Barr, -Sinoussi et al., 1983) stock was obtained from culture supernatant of HIV-2 infected cell lines."}, "[2]": {"assay": "Cytotoxicity in mock-infected MT-4 cells (MTT)", "format": "cell-based", "conditions": "human, mock-infected MT-4 cells", "procedure": "as §1, §2"}, "[3]": {"conditions": "mock-infected MT-4 cells, read-out: CC50"}, "[4]": {"conditions": "50% protection of HIV-infected MT-4 cells, read-out: EC50"}, "[5]": {"conditions": "Human immunodeficiency virus 1, MT4, 50% protection of HIV-infected MT-4 cells, read-out: EC50"}, "[6]": {"conditions": "Human immunodeficiency virus 1, MT4"}}, "note": "Where two headings read alike, the source gives them in different places."}
{"molecule": "2-[2-tert-butyl-7-(1,2-dihydroacenaphthylen-5-yl)-5-methylpyrazolo[1,5-a]pyrimidin-6-yl]acetic acid [CPD-111]", "values": [{"measurement": "Alpha screen % (100 μM)", "setting": "[1]", "value": 89, "unit": "%"}, {"measurement": "CC50", "setting": "MT-4 cells; [3]", "value": 50, "unit": "µM"}]}
{"molecule": "2-[2-tert-butyl-7-(1,2-dihydroacenaphthylen-5-yl)-5-methylpyrazolo[1,5-a]pyrimidin-6-yl]acetic acid [CPD-112]", "values": [{"measurement": "Alpha screen % (100 μM)", "setting": "[1]", "value": 93, "unit": "%"}, {"measurement": "CC50", "setting": "MT-4 cells; [3]", "value": 59, "unit": "µM"}]}
{"molecule": "2-[2-tert-butyl-7-(2-hydroxy-4-methylphenyl)-5-methylpyrazolo[1,5-a]pyrimidin-6-yl]acetic acid [CPD-117]", "values": [{"measurement": "Alpha screen % (100 μM)", "setting": "[1]", "value": 95, "unit": "%"}, {"measurement": "EC50", "setting": "HIV; [4]", "value": 2.06, "unit": "µM"}, {"measurement": "CC50", "setting": "MT-4 cells; [3]", "value": 116, "unit": "µM"}]}
{"molecule": "COCCC(C(=O)O)c1c(C)nc2cc(C(C)(C)C)nn2c1-c1ccc(C)cc1", "note": "(stereo not drawn) [CPD-88, 2-(2-tert-butyl-7-p-tolyl-5-methylpyrazolo[1,5-a]pyrimidin-6-yl)-4-methoxybutanoic acid]", "values": [{"measurement": "Alpha screen % (100 μM)", "setting": "[1]", "value": 44, "unit": "%"}, {"measurement": "EC50", "setting": "HIV; [5]", "value": 38, "unit": "µM"}, {"measurement": "CC50", "setting": "[2]", "value": "> 250", "unit": "µM"}]}
{"molecule": "CCCC(C(=O)O)c1c(C)nc2cc(C(C)(C)C)nn2c1-c1ccc(C(C)C)cc1", "note": "(stereo not drawn) [CPD-89, 2-(2-tert-butyl-5-methyl-7-(4-iso-propylphenyl)pyrazolo[1,5-a]pyrimidin-6-yl)pentanoic acid]", "values": [{"measurement": "Alpha screen % (100 μM)", "setting": "[1]", "value": 89, "unit": "%"}, {"measurement": "EC50", "setting": "HIV; [6]", "value": 24, "unit": "µM"}, {"measurement": "CC50", "setting": "[2]", "value": 139, "unit": "µM"}]}
{"molecule": "CCCC(C(=O)O)c1c(C)nc2cc(C(C)(C)C)nn2c1-c1ccc(C(F)(F)F)cc1", "note": "(stereo not drawn) [CPD-90, 2-(2-tert-butyl-5-methyl-7-(4-trifluoromethylphenyl)pyrazolo[1,5-a]pyrimidin-6-yl)pentanoic acid]", "values": [{"measurement": "Alpha screen % (100 μM)", "setting": "[1]", "value": 70, "unit": "%"}, {"measurement": "EC50", "setting": "HIV; [5]", "value": 6.15, "unit": "µM"}, {"measurement": "CC50", "setting": "[2]", "value": 22, "unit": "µM"}]}
{"molecule": "CCCC(C(=O)O)c1c(C)nc2cc(C(C)(C)C)nn2c1-c1ccc(F)cc1F", "note": "(stereo not drawn) [CPD-91, 2-(2-tert-butyl-7-(2,4-difluorophenyl)-5-methylpyrazolo[1,5-a]pyrimidin-6-yl)pentanoic acid]", "values": [{"measurement": "Alpha screen % (100 μM)", "setting": "[1]", "value": 90, "unit": "%"}, {"measurement": "EC50", "setting": "HIV; [5]", "value": 15.7, "unit": "µM"}, {"measurement": "CC50", "setting": "[2]", "value": 85.5, "unit": "µM"}]}
{"molecule": "CCCC(C(=O)O)c1c(C)nc2cc(C(C)(C)C)nn2c1-c1ccc(C)cc1Cl", "note": "(stereo not drawn) [CPD-92, 2-(2-tert-butyl-7-(2-chloro-4-methylphenyl)-5-methylpyrazolo[1,5-a]pyrimidin-6-yl)pentanoic acid]", "values": [{"measurement": "Alpha screen % (100 μM)", "setting": "[1]", "value": 95, "unit": "%"}, {"measurement": "EC50", "setting": "HIV; [5]", "value": 9.13, "unit": "µM"}, {"measurement": "CC50", "setting": "[2]", "value": 60.5, "unit": "µM"}]}
{"molecule": "CCCC(C(=O)O)c1c(C)nc2cc(C(C)(C)C)nn2c1-c1ccc(C)cc1N", "note": "(stereo not drawn) [CPD-93, 2-(7-(2-amino-4-methylphenyl)-2-tert-butyl-5-methylpyrazolo[1,5-a]pyrimidin-6-yl)pentanoic acid]", "values": [{"measurement": "Alpha screen % (100 μM)", "setting": "[1]", "value": 90, "unit": "%"}, {"measurement": "EC50", "setting": "HIV; [6]", "value": 7.4, "unit": "µM"}, {"measurement": "CC50", "setting": "[2]", "value": 119, "unit": "µM"}]}
{"molecule": "CCCC(C(=O)O)c1c(C)nc2cc(C(C)(C)C)nn2c1-c1ccc(OC)cc1F", "note": "(stereo not drawn) [CPD-95, 2-(2-tert-butyl-7-(2-fluoro-4-methoxyphenyl)-5-methylpyrazolo[1,5-a]pyrimidin-6-yl)pentanoic acid]", "values": [{"measurement": "Alpha screen % (100 μM)", "setting": "[1]", "value": 83, "unit": "%"}, {"measurement": "EC50", "setting": "HIV; [5]", "value": 7.48, "unit": "µM"}, {"measurement": "CC50", "setting": "[2]", "value": 115, "unit": "µM"}]}
{"molecule": "CCCC(C(=O)O)c1c(C)nc2cc(C(C)(C)C)nn2c1-c1ccc(C)cc1C", "note": "(stereo not drawn) [CPD-98, 2-(2-tert-butyl-7-(2,4-dimethylphenyl)-5-methylpyrazolo[1,5-a]pyrimidin-6-yl)pentanoic acid]", "values": [{"measurement": "Alpha screen % (100 μM)", "setting": "[1]", "value": 89, "unit": "%"}, {"measurement": "EC50", "setting": "HIV; [6]", "value": 5.91, "unit": "µM"}, {"measurement": "CC50", "setting": "[2]", "value": 69, "unit": "µM"}]}
{"molecule": "CCCC(C(=O)O)c1c(C)nc2c(C)c(C(C)(C)C)nn2c1-c1ccc(C)cc1", "note": "(stereo not drawn) [CPD-99, 2-(2-tert-butyl-3,5-dimethyl-7-p-tolylpyrazolo[1,5-a]pyrimidin-6-yl)pentanoic acid]", "values": [{"measurement": "Alpha screen % (100 μM)", "setting": "[1]", "value": 81, "unit": "%"}, {"measurement": "EC50", "setting": "HIV; [5]", "value": 1.01, "unit": "µM"}, {"measurement": "CC50", "setting": "[2]", "value": 34, "unit": "µM"}]}
{"molecule": "CCCC(C(=O)O)c1c(C)nc2c(-c3ccccc3)c(C(C)(C)C)nn2c1-c1ccc(C)cc1", "note": "(stereo not drawn) [CPD-100, 2-(2-tert-butyl-5-methyl-3-phenyl-7-p-tolylpyrazolo[1,5-a]pyrimidin-6-yl)pentanoic acid]", "values": [{"measurement": "Alpha screen % (100 μM)", "setting": "[1]", "value": 92, "unit": "%"}, {"measurement": "EC50", "setting": "HIV; [5]", "value": 6.24, "unit": "µM"}, {"measurement": "CC50", "setting": "[2]", "value": 23, "unit": "µM"}]}
{"molecule": "Ethyl 2-(2-benzyl-5-methyl-7-p-tolyl-[1,2,4]-triazolo[1,5-a]pyrimidin-6-yl)pentanoate [CPD-123]", "values": [{"measurement": "EC50", "setting": "HIV; [4]", "value": 26.1, "unit": "µM"}, {"measurement": "CC50", "setting": "MT-4 cells", "value": 126, "unit": "µM"}]}
